In PubChem BioAssay AID2060337 (Molecular Pharmacology Branch, DTP, NCI, 2025):
Several values for one entry are separate records, joined by “and”; a condition that tells them apart may be missing. Equal values may be shown once.

System: 832693-133-R-J1-PDC multi-cell spheroids, viability
Test: Anticancer human tumor 832693-133-R-J1-PDC patient-derived head and neck squamous carcinoma cell line growth inhibition [IpAb]
Conditions: for viability, T/C: stronger effect = lower value
Source text: Combinatorial screen of targeted agents with ipatasertib and abemaciclib in multi-cell type tumor spheroids
A high-throughput screen of multi-cell type tumor spheroids was designed to identify active combinations of targeted small molecules and ipatasertib or abemaciclib. Complex spheroids include a stromal component modeled by human endothelial cells (HUVEC) and fibroblasts modeled by human mesenchymal stem cells (MSCs). The concentration ranges selected for each drug and investigational agent were based upon clinically achievable concentrations if the clinical Cmax of the agent was known.
Compounds. The drugs and investigational agents: ipatasertib (NSC767898), abemaciclib(NSC768073), selumetinib (NSC741078), trametinib (758246), adavosertib (NSC754352), everolimus (NSC733504), sapanisertib (NSC764658), vemurafenib (NSC761431), venetoclax (NSC766270), copanlisib (NSC809693), apelisib (NSC765974), palbociblib (NSC758247), vemurafenib (NSC761431), dabrafenib (NSC764134), ravoxertinib (NSC781343), BMS-387032 (NSC767048), sotorasib (NSC818433), talazoparib (NSC767125) and afursertib (NSC778305), were obtained from the National Cancer Institute (NCI) Developmental Therapeutics Program Chemical Repository. The FDA-approved anticancer drug set is available from the NCI Developmental Therapeutics Program. […] The stock solutions were prepared in dimethyl sulfoxide (DMSO, Sigma-Aldrich, St. Louis, MO, cat. D2650) at 800-fold the tested concentration and stored at -70 degrees C prior to their use. All drugs and investigational agents were tested over a range starting from a high concentration at or near the clinical Cmax and decreasing in half-log increments. If the clinical Cmax for an agent had not been determined, the highest concentration tested was 10 microM.
NCI60 Cell Culture. NCI60 cell lines were obtained from the NCI Developmental Therapeutics Program Tumor Repository. For each lot of cells, the Repository performed Applied Biosystems AmpFLSTR Identifiler testing with PCR amplification to confirm consistency with the published Identifier STR profile for each cell line. Cells were kept in continuous culture for no more than 20 passages. The optimal seeding densities for each of the cell lines at each time point assessed were determined prior to performing the concentration response studies. Briefly, the NCI60 human tumor lines were grown as monolayers in RPMI 1640 medium supplemented with 10% FBS and 2 mmol/L L-glutamine.
An additional 9 lines were from the NCI60 cell line panel including MDA-MB-231 breast carcinoma, MDA-MB-468 breast carcinoma, MCF7 breast carcinoma, Hs578T breast carcinoma, MALME-3M melanoma, SK-MEL-2 melanoma, SK-OV-3 ovarian carcinoma, DU-145 prostate carcinoma, PC-3 prostate carcinoma, all cell lines along with major genetic alterations are listed on Table 2. Pooled donor human umbilical vein endothelial cells (HUVEC, Lonza, cat. CC-2519) and human mesenchymal stem cells (hMSC, Lonza, cat. PT-2501) were purchased from Lonza (Walkersville, MD).
PDMR cell lines were grown in complete medium (DC medium): Dulbecco's modified Eagle's medium (DMEM)/F12 supplemented with 5% fetal bovine serum (FBS), 2 mM L-glutamine, 100 U/mL penicillin and 100 µg/ml streptomycin, 0.4 µg/ml hydrocortisone, 10 ng/ml epidermal growth factor (EGF) recombinant human protein, 24 µg/mL adenine, and 0.1 mg/mL primocin. During culture from frozen stock vials, PDMR cells were cultured in the same medium containing 10 µM Y-27632 (see Table 3). The PDCs were cultured in complete DMEM/F12 media without 10 microM Y-27632 dihydrochloride for at least two passages prior to the screen. The pooled donor HUVEC and hMSC were cultured in endothelial cell growth medium 2 (PromoCell, Heidelberg, Germany, cat. C-22011) and mesenchymal stem cell growth medium 2 (PromoCell, cat. C-28009), respectively. For all experiments, HUVEC and hMSC were used at passages </=5.
[…]

[1] = curve of first compound, second compound 0.1 µM
[2] = curve of first compound, second compound 0.316 µM
[3] = curve of first compound, second compound 1 µM
[4] = second compound 0.1 µM, first compound 0.0316 µM
[5] = second compound 0.1 µM, first compound 0.1 µM
[6] = second compound 0.1 µM, first compound 0.316 µM
[7] = second compound 0.1 µM, first compound 1 µM
[8] = second compound 0.316 µM, first compound 0.0316 µM
[9] = second compound 0.316 µM, first compound 0.1 µM
[10] = second compound 0.316 µM, first compound 0.316 µM
[11] = second compound 0.316 µM, first compound 1 µM
[12] = second compound 1 µM, first compound 0.0316 µM
[13] = second compound 1 µM, first compound 0.1 µM
[14] = second compound 1 µM, first compound 0.316 µM
[15] = second compound 1 µM, first compound 1 µM
[16] = curve of first compound, second compound 3.16 µM
[17] = curve of first compound, second compound 10 µM
[18] = second compound 0.1 µM, first compound 3.16 µM
[19] = second compound 0.1 µM, first compound 10 µM
[20] = second compound 0.316 µM, first compound 3.16 µM
[21] = second compound 0.316 µM, first compound 10 µM
[22] = second compound 1 µM, first compound 3.16 µM
[23] = second compound 1 µM, first compound 10 µM
[24] = second compound 3.16 µM, first compound 0.0316 µM
[25] = second compound 3.16 µM, first compound 0.1 µM
[26] = second compound 3.16 µM, first compound 0.316 µM
[27] = second compound 3.16 µM, first compound 1 µM
[28] = second compound 3.16 µM, first compound 3.16 µM
[29] = second compound 3.16 µM, first compound 10 µM
[30] = second compound 10 µM, first compound 0.0316 µM
[31] = second compound 10 µM, first compound 0.1 µM
[32] = second compound 10 µM, first compound 0.316 µM
[33] = second compound 10 µM, first compound 1 µM
[34] = second compound 10 µM, first compound 3.16 µM
[35] = second compound 10 µM, first compound 10 µM
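Also: spheroids exposed to the drugs for one week before the viability readout.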
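For viability, T/C in this document: 100% = DMSO vehicle control wells.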

`COc1c(OCCCN2CCOCC2)ccc2c3n(c(=NC(=O)c4cnc(N)nc4)nc12)CCN3` + CCN1CCN(Cc2ccc(Nc3ncc(F)c(-c4cc(F)c5nc(C)n(C(C)C)c5c4)n3)nc2)CC1 showed an IC50 (curve of first compound, second compound 0.01 µM) of 14.4 nM, an IC50 (curve of first compound, second compound 0.0316 µM) of 11.2 nM and an IC50 [1] of 7.16 nM. It also gave an IC50 [2] of 4.44 nM, an IC50 [3] of 6.11 nM and a viability, T/C (second compound 0.01 µM, first compound 0.00316 µM) of 89.4%. For the same compound, the viability, T/C (second compound 0.01 µM, first compound 0.01 µM) was 61.8%, the viability, T/C (second compound 0.01 µM, first compound 0.0316 µM) was 24.7% and the viability, T/C (second compound 0.01 µM, first compound 0.1 µM) was 7.08%. It also gave a viability, T/C (second compound 0.01 µM, first compound 0.316 µM) of 3.46%, a viability, T/C (second compound 0.01 µM, first compound 1 µM) of 5.82% and a viability, T/C (second compound 0.0316 µM, first compound 0.00316 µM) of 74.2%. For the same compound, the viability, T/C (second compound 0.0316 µM, first compound 0.01 µM) was 52.7%, the viability, T/C (second compound 0.0316 µM, first compound 0.0316 µM) was 23.4% and the viability, T/C (second compound 0.0316 µM, first compound 0.1 µM) was 5.88%. The viability, T/C (second compound 0.0316 µM, first compound 0.316 µM) was 3%, the viability, T/C (second compound 0.0316 µM, first compound 1 µM) was 2.63% and the viability, T/C (second compound 0.1 µM, first compound 0.00316 µM) was 60.1%. It also gave a viability, T/C (second compound 0.1 µM, first compound 0.01 µM) of 45.6%, a viability, T/C [4] of 22.1% and a viability, T/C [5] of 6.68%. For the same compound, the viability, T/C [6] was 3.33%, the viability, T/C [7] was 3.51% and the viability, T/C (second compound 0.316 µM, first compound 0.00316 µM) was 53.8%. It also gave a viability, T/C (second compound 0.316 µM, first compound 0.01 µM) of 40.8%, a viability, T/C [8] of 21.5% and a viability, T/C [9] of 9.72%. It also gave a viability, T/C [10] of 6.61%, a viability, T/C [11] of 6.55% and a viability, T/C (second compound 1 µM, first compound 0.00316 µM) of 53.2%. The viability, T/C (second compound 1 µM, first compound 0.01 µM) was 47.7%, the viability, T/C [12] was 23.4% and the viability, T/C [13] was 16.2%. The viability, T/C [14] was 12% and the viability, T/C [15] was 14.8%.
`Cc1nc(NC(=O)N2CCCC2C(N)=O)sc1-c1ccnc(C(C)(C)C(F)(F)F)c1` (configuration not stated) + CC(C)NCC(C(=O)N1CCN(c2ncnc3c2C(C)CC3O)CC1)c1ccc(Cl)cc1 gave an IC50 [1] of 452 nM, an IC50 [2] of 260 nM and an IC50 [3] of 40.9 nM. For the same compound, the IC50 [16] was under 31.6 nM, the IC50 [17] was 45 nM and the viability, T/C [4] was 90.3%. It also gave a viability, T/C [5] of 78.8%, a viability, T/C [6] of 51.3% and a viability, T/C [7] of 41%. It also gave a viability, T/C [18] of 14.1%, a viability, T/C [19] of 4.68% and a viability, T/C [8] of 77.8%. The viability, T/C [9] was 64.2%, the viability, T/C [10] was 49% and the viability, T/C [11] was 23.8%. The viability, T/C [20] was 12.8%, the viability, T/C [21] was 3.31% and the viability, T/C [12] was 52.2%. The viability, T/C [13] was 41.5%, the viability, T/C [14] was 26.8% and the viability, T/C [15] was 16%. It also gave a viability, T/C [22] of 9.89%, a viability, T/C [23] of 2.93% and a viability, T/C [24] of 46%. The viability, T/C [25] was 32.8%, the viability, T/C [26] was 24.4% and the viability, T/C [27] was 16.3%. It also gave a viability, T/C [28] of 10.7%, a viability, T/C [29] of 3.55% and a viability, T/C [30] of 55.6%. The viability, T/C [31] was 38.4%, the viability, T/C [32] was 28.6% and the viability, T/C [33] was 19.1%. It also gave a viability, T/C [34] of 13.3% and a viability, T/C [35] of 3.58%.
`CC1(C)CCC(CN2CCN(c3ccc(C(=O)NS(=O)(=O)c4ccc(NCC5CCOCC5)c([N+](=O)[O-])c4)c(Oc4cnc5[nH]ccc5c4)c3)CC2)=C(c2ccc(Cl)cc2)C1` + CC(C)NCC(C(=O)N1CCN(c2ncnc3c2C(C)CC3O)CC1)c1ccc(Cl)cc1 gave an IC50 [1] of 9680 nM, an IC50 [2] of 4870 nM and an IC50 [3] of 3920 nM. The IC50 [16] was 3740 nM, the IC50 [17] was 3640 nM and the viability, T/C [4] was 94.1%. For the same compound, the viability, T/C [5] was 90.3%, the viability, T/C [6] was 94.6% and the viability, T/C [7] was 88.5%. For the same compound, the viability, T/C [18] was 82.7%, the viability, T/C [19] was 48.8% and the viability, T/C [8] was 81.2%. The viability, T/C [9] was 80.3%, the viability, T/C [10] was 74.2% and the viability, T/C [11] was 64.7%. For the same compound, the viability, T/C [20] was 68.7%, the viability, T/C [21] was 26.9% and the viability, T/C [12] was 60.9%. For the same compound, the viability, T/C [13] was 55.2%, the viability, T/C [14] was 55.2% and the viability, T/C [15] was 49.5%. For the same compound, the viability, T/C [22] was 72.4%, the viability, T/C [23] was 12.7% and the viability, T/C [24] was 51.2%. It also gave a viability, T/C [25] of 47.6%, a viability, T/C [26] of 55.5% and a viability, T/C [27] of 57.3%. For the same compound, the viability, T/C [28] was 73.2%, the viability, T/C [29] was 8.99% and the viability, T/C [30] was 58.6%. For the same compound, the viability, T/C [31] was 62.5%, the viability, T/C [32] was 52.2% and the viability, T/C [33] was 51.6%. It also gave a viability, T/C [34] of 57.4% and a viability, T/C [35] of 3.92%.
For `Cn1nccc1Nc1nccc(-c2ccn(C(CO)c3ccc(Cl)c(F)c3)c(=O)c2)n1` (configuration not stated), the viability, T/C (compound 0.0316 µM) was 97.1% and 93.1%, the viability, T/C (compound 0.1 µM) was 77% and 82.1% and the viability, T/C (compound 0.316 µM) was 64.1% and 70.2%. For the same compound, the viability, T/C (compound 1 µM) was 57.1% and 65.9%, the viability, T/C (compound 3.16 µM) was 34.3% and 33.6% and the viability, T/C (compound 10 µM) was 13% and 24.2%. The IC50 (curve of compound) was 1070 nM and 1650 nM.
